Laboratory results from patent publication EP1818060A1, “Cosmetic composition comprising Fadogia ancylantha extracts” (ARTSANA S.p.A., priority 2005, dated 2007).
Marks after values point to notes of the source that are not given here.

Experiment: Antioxidant activity, DPPH test
Assay type: biochemical
Conditions: second SC50 column; control; in brackets tolerated range 95%
Procedure: The antioxidant activity of the dry extract A, obtained as above illustrated in Example 1, of Fadogia ancylantha was determined using the 2,2 diphenyl-1-picrilhydrazilic stable radical (DPPH°) and α-tocopherol as a control, according to the protocol disclosed by Aquino R. et al. in "Phenolic constituents and antioxidant activity of an extract of Anthurium versicolor leaves", J. of Natural products 64, 1019-1023.
The decrease of absorbance measured according to the above protocol is directly correlated with the free-radical scavenger ability of the antioxidant under test.
The DPPH° percentage remaining at the steady state (%DPPH°RIM) is calculated by applying the following formula %DPPH°RIM = (DPPH)° × T1 /(DPPH°) × To × 100 [formula] where T1 is the time to reach the steady state.
The amount of the antioxidant needed to reduce the radical initial concentration to a half (SC50, expressed as µg of the extract/ml) was calculated from the percentage of DPPH°RIM with respect to the antioxidant concentrations used.
All tests were carried out in triplicate and repeated for three times.

Cc1c(C)c2c(c(C)c1O)CC[C@@](C)(CCC[C@H](C)CCC[C@H](C)CCCC(C)C)O2 [α-tocopherol]
DPPH test SC50: 10.1 (8.8-11.4)^c µg/ml of phenols
